Source: ChEMBL document CHEMBL5113429, “Diazepinone HBV capsid assembly modulators” (Bioorg Med Chem Lett, 2022)
≈ marks a conversion by molar mass, not a printed value.

Tests used:
[1] = Intrinsic clearance in human liver microsomes; format: ADME, Microsome; conditions: read-out: CLH
[2] = Thermodynamic solubility in pH 7 buffer; format: physicochemical; conditions: read-out: Therm_solubility
[3] = Modulation of capsid assembly in HBV infected in human HepG2.2.15 cells assessed as inhibition of viral DNA replication
[4] = target: Core antigen (Hepatitis B virus) (UniProt Q03732); assay: Ratio of EC50 for modulation of capsid assembly in HBV infected in human HepG2.2.15 cells in presence of 40% normal human serum to EC50 for modulation of capsid assembly in HBV infected in human HepG2.2.15 cells in absence of 40% normal human serum; format: cell-based
[5] = Intrinsic clearance in rat liver microsomes; format: ADME, Microsome; conditions: read-out: CLH
[6] = Intrinsic clearance in dog liver microsomes; format: ADME, Canis lupus familiaris, Microsome; conditions: read-out: CLH
[7] = Lipophilicity, log D of compound; format: physicochemical; conditions: octanol/water
[8] = Intrinsic clearance in mouse liver microsomes; format: ADME, Microsome; conditions: read-out: CLH
[9] = Protein binding in human plasma; format: ADME, cell-free; conditions: read-out: PPB (converted)
[10] = Protein binding in rat plasma; format: ADME, cell-free; conditions: read-out: PPB (converted)
[11] = Protein binding in mouse plasma; format: ADME, cell-free; conditions: read-out: PPB (converted)
[12] = Protein binding in dog plasma; format: ADME, cell-free, Canis lupus familiaris; conditions: read-out: PPB (converted)
[13] = Intrinsic clearance in human hepatocytes; format: ADME, cell-based, Hepatocyte; conditions: read-out: CLH
[14] = Intrinsic clearance in dog hepatocytes; format: ADME, cell-based, Canis lupus familiaris, Hepatocyte; conditions: read-out: CLH
[15] = Intrinsic clearance in rat hepatocytes; format: ADME, cell-based, Hepatocyte; conditions: read-out: CLH
[16] = Intrinsic clearance in mouse hepatocytes; format: ADME, cell-based, Hepatocyte; conditions: read-out: CLH
[17] = Volume of distribution at steady state in mouse at 10 mg/kg, po or 2.5 mg/kg, iv; format: ADME, organism-based; conditions: in vivo
[18] = Half life in mouse at 10 mg/kg, po or 2.5 mg/kg, iv; format: ADME, organism-based; conditions: in vivo
[19] = Cmax in mouse at 10 mg/kg, po; format: ADME, organism-based; set-up: dose 10 mg/kg, route po; conditions: in vivo
[20] = Tmax in mouse at 10 mg/kg, po; format: ADME, organism-based; conditions: in vivo
[21] = AUC (0 to infinity) in mouse at 10 mg/kg, po; format: ADME, organism-based; set-up: time infinity, dose 10 mg/kg, route po; conditions: in vivo
[22] = Oral bioavailability in mouse at 10 mg/kg; format: ADME, organism-based; conditions: in vivo
[23] = Volume of distribution at steady state in rat at 5 mg/kg, po or 1.25 mg/kg, iv; format: ADME, organism-based; conditions: in vivo
[24] = Half life in rat at 5 mg/kg, po or 1.25 mg/kg, iv; format: ADME, organism-based; conditions: in vivo
[25] = Cmax in rat at 5 mg/kg, po; format: ADME, organism-based; set-up: dose 5 mg/kg, route po; conditions: in vivo
[26] = Tmax in rat at 5 mg/kg, po; format: ADME, organism-based; conditions: in vivo
[27] = AUC (0 to infinity) in rat at 5 mg/kg, po; format: ADME, organism-based; set-up: time infinity, dose 5 mg/kg, route po; conditions: in vivo
[28] = Oral bioavailability in rat at 5 mg/kg; format: ADME, organism-based; conditions: in vivo
[29] = Volume of distribution at steady state in Beagle dog at 2.5 mg/kg, po or 0.5 mg/kg, iv; format: ADME, organism-based, Canis lupus familiaris; conditions: in vivo
[30] = Half life in Beagle dog at 2.5 mg/kg, po or 0.5 mg/kg, iv; format: ADME, organism-based, Canis lupus familiaris; conditions: in vivo
[31] = Cmax in Beagle dog at 2.5 mg/kg, po; format: ADME, organism-based, Canis lupus familiaris; set-up: dose 2.5 mg/kg, route po; conditions: in vivo
[32] = Tmax in Beagle dog at 2.5 mg/kg, po; format: ADME, organism-based, Canis lupus familiaris; conditions: in vivo
[33] = AUC (0 to infinity) in Beagle dog at 2.5 mg/kg, po; format: ADME, organism-based, Canis lupus familiaris; set-up: time infinity, dose 2.5 mg/kg, route po; conditions: in vivo
[34] = Oral bioavailability in Beagle dog at 2.5 mg/kg; format: ADME, organism-based, Canis lupus familiaris; conditions: in vivo

Sequence of Core antigen (Hepatitis B virus) (Q03732 as listed by the source): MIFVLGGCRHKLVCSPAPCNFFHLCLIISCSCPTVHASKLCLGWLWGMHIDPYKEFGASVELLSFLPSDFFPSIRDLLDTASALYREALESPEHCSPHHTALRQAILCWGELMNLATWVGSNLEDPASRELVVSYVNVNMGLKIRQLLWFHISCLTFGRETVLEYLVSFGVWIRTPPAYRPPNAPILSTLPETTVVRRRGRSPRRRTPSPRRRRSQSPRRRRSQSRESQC

In the case of `CN1OC(CO)Cn2nc3c(c2C1=O)CN(C(=O)Nc1ccc(F)c(Cl)c1)CC3` (racemic), the CLint scaled [1] is reported as < 7 mL/min/kg, the solubility thermodynamic [2] is reported as 169 µM (≈ 71.6 µg/mL) and the EC50 [3] is reported as 9 nM.
For `CN1CC(CO)Cn2nc3c(c2C1=O)CN(C(=O)Nc1ccc(F)c(Cl)c1)CC3` (racemic), the CLint scaled [1] was < 5 mL/min/kg and the solubility thermodynamic [2] was 191 µM (≈ 80.6 µg/mL).
Molecule `CN1CC(C(F)F)Cn2nc3c(c2C1=O)CN(C(=O)Nc1ccc(F)c(Cl)c1)CC3` (racemic) has a CLint scaled [1] of 15 mL/min/kg and a solubility thermodynamic [2] of 175 µM (≈ 77.3 µg/mL).
In the case of `CN1CC(F)Cn2nc3c(c2C1=O)CN(C(=O)Nc1ccc(F)c(C#N)c1)CC3` (racemic), the CLint scaled [1] is reported as 5.2 mL/min/kg and the solubility thermodynamic [2] is reported as 179 µM (≈ 71.7 µg/mL).
`CN1CC(F)Cn2nc3c(c2C1=O)CN(C(=O)Nc1ccc(F)c(Cl)c1)CC3` (racemic) gave a CLint scaled [1] of 12 mL/min/kg and a solubility thermodynamic [2] of 183 µM (≈ 75 µg/mL).
Molecule `C[C@@H]1Cc2nn3c(c2CN1C(=O)Nc1ccc(F)c(C#N)c1)C(=O)N(C)O[C@@H](CF)C3` has a Ratio EC50 [4] of 2.
For `CN1CCCCn2nc3c(c2C1=O)CN(C(=O)Nc1ccc(F)c(Cl)c1)CC3`, the CLint scaled [1] was 16 mL/min/kg and the solubility thermodynamic [2] was > 200 µM.
`CN1CC(OCC(F)F)Cn2nc3c(c2C1=O)CN(C(=O)Nc1ccc(F)c(Cl)c1)CC3` (racemic) showed a CLint scaled [1] of 5.4 mL/min/kg and a solubility thermodynamic [2] of 181 µM (≈ 85.4 µg/mL).
With `CN1C(=O)c2c3c(nn2CCC1CO)CCN(C(=O)Nc1ccc(F)c(Cl)c1)C3` (racemic) the CLint scaled [1] was 9 mL/min/kg and the solubility thermodynamic [2] was 189 µM (≈ 79.7 µg/mL).
`CN1CCC(CO)n2nc3c(c2C1=O)CN(C(=O)Nc1ccc(F)c(Cl)c1)CC3` (racemic) showed a CLint scaled [1] of 4.7 mL/min/kg and a solubility thermodynamic [2] of 195 µM (≈ 82.3 µg/mL).
`CN1CCCn2nc3c(c2C1=O)CN(C(=O)Nc1ccc(F)c(Cl)c1)CC3` showed a CLint scaled [1] of 11 mL/min/kg and a solubility thermodynamic [2] of 195 µM (≈ 76.4 µg/mL).
With `CN1CC(F)Cn2nc3c(c2C1=O)CN(C(=O)Nc1ccnc(Br)c1F)CC3` (racemic) the CLint scaled [1] was 5 mL/min/kg and the solubility thermodynamic [2] was 170 µM (≈ 77.4 µg/mL).
For `CN1CC(F)Cn2nc3c(c2C1=O)CN(C(=O)Nc1ccc(F)c(C(F)(F)F)c1)CC3` (racemic), the CLint scaled [1] was 17 mL/min/kg and the solubility thermodynamic [2] was 175 µM (≈ 77.6 µg/mL).
For `CN1CC(N(C)C)Cn2nc3c(c2C1=O)CN(C(=O)Nc1ccc(F)c(Cl)c1)CC3` (racemic), the CLint scaled [1] was 14 mL/min/kg and the solubility thermodynamic [2] was 187 µM (≈ 81.3 µg/mL).
In the case of `C[C@@H]1Cc2nn3c(c2CN1C(=O)Nc1ccc(F)c(C#N)c1)C(=O)N(C)C[C@H](F)C3`, the CLint scaled [1] is reported as < 6 mL/min/kg, the CLint scaled [5] is reported as 31 mL/min/kg and the CLint scaled [6] is reported as < 8 mL/min/kg. It also gave a logD [7] of 1.96.
Work on `CC1CN(C)C(=O)c2c3c(nn2C1)CCN(C(=O)Nc1ccc(F)c(Cl)c1)C3` (racemic) yielded a CLint scaled [1] of 28 mL/min/kg and a solubility thermodynamic [2] of 182 µM (≈ 73.9 µg/mL).
`CN1CC(F)(F)Cn2nc3c(c2C1=O)CN(C(=O)Nc1ccc(F)c(Cl)c1)CC3` gave a CLint scaled [1] of 8.1 mL/min/kg and a solubility thermodynamic [2] of 181 µM (≈ 77.4 µg/mL).
With `C[C@@H]1Cc2nn3c(c2CN1C(=O)Nc1ccc(F)c(C#N)c1)C(=O)N(C)C[C@@H](F)C3` the CLint scaled [1] was < 6 mL/min/kg, the solubility thermodynamic [2] was 72 µM (≈ 29.8 µg/mL) and the Ratio EC50 [4] was 1.5. For the same molecule, the CLint scaled [5] was 44 mL/min/kg, the CLint scaled [8] was 28 mL/min/kg and the CLint scaled [6] was < 6 mL/min/kg. The logD [7] was 1.95, the fraction unbound [9] was 0.19 and the fraction unbound [10] was 0.38. It also gave a fraction unbound [11] of 0.34, a fraction unbound [12] of 0.23 and a CLint scaled [13] of 7.7 mL/min/kg. For the same molecule, the CLint scaled [14] was < 6.4 mL/min/kg, the CLint scaled [15] was 57 mL/min/kg and the CLint scaled [16] was 101 mL/min/kg. For the same molecule, the Vdss [17] was 0.99 L/kg, the half-life [18] was 0.51 h and the Cmax [19] was 1270 ng/mL. The Tmax [20] was 0.5 h, the AUC(0-inf) [21] was 1930 ng·h/mL and the bioavailability [22] was 44%. For the same molecule, the Vdss [23] was 2.09 L/kg, the half-life [24] was 1.92 h and the Cmax [25] was 98 ng/mL. It also gave a Tmax [26] of 1.33 h, an AUC(0-inf) [27] of 697 ng·h/mL and a bioavailability [28] of 54%. For the same molecule, the Vdss [29] was 1 L/kg, the half-life [30] was 4.3 h and the Cmax [31] was 1150 ng/mL. For the same molecule, the Tmax [32] was 2 h, the AUC(0-inf) [33] was 7000 ng·h/mL and the bioavailability [34] was 47%.
Work on `CN1CCn2nc3c(c2C1=O)CN(C(=O)Nc1ccc(F)c(Cl)c1)CC3` yielded a CLint scaled [1] of 26 mL/min/kg and a solubility thermodynamic [2] of 179 µM (≈ 67.6 µg/mL).
`CN1CC(F)Cn2nc3c(c2C1=O)CN(C(=O)Nc1ccc(F)c(Br)c1)CC3` (racemic) showed a CLint scaled [1] of 22 mL/min/kg and a solubility thermodynamic [2] of 191 µM (≈ 86.8 µg/mL).
